Measurements: article PMC3139892, “Effective Control of Postprandial Glucose Level through Inhibition of Intestinal Alpha Glucosidase by Cymbopogon martinii (Roxb.)” (Evidence-based Complementary and Alternative Medicine : eCAM, 2011)

Target: T1, intestinal alpha glucosidase (maltase activity)
T1 construct: gene Mgam; mixture of intestinal alpha-glucosidases
Assay: maltose hydrolysis, glucose by glucose oxidase (GOD-PAP)
Type: biochemical, Rattus norvegicus
Conditions: 25 mM maltose, 100 mM phosphate pH 7.2, 37°C, 30 min; mucosal enzyme preparation
Source text: maltose hydrolysis, glucose by glucose oxidase (GOD-PAP) on intestinal alpha glucosidase (maltase activity)

Acarbose / IC50: 60 µg/mL
Compound: C[C@H]1O[C@H](O[C@H]2[C@H](O)[C@@H](O)[C@@H](O[C@H]3[C@H](O)[C@@H](O)C(O)O[C@@H]3CO)O[C@@H]2CO)[C@H](O)[C@@H](O)[C@@H]1N[C@H]1C=C(CO)[C@@H](O)[C@H](O)[C@H]1O (stereo partly shown) [acarbose]
